From US9708316B2 (BRISTOL-MYERS SQUIBB COMPANY, priority 2014, dated 2017) come the findings set out here.

The target in one test is T1, HIS-TGFβR1 T204D (Homo sapiens, UniProt P36897, T204D).
T1 sequence (P36897 34-503 T204D): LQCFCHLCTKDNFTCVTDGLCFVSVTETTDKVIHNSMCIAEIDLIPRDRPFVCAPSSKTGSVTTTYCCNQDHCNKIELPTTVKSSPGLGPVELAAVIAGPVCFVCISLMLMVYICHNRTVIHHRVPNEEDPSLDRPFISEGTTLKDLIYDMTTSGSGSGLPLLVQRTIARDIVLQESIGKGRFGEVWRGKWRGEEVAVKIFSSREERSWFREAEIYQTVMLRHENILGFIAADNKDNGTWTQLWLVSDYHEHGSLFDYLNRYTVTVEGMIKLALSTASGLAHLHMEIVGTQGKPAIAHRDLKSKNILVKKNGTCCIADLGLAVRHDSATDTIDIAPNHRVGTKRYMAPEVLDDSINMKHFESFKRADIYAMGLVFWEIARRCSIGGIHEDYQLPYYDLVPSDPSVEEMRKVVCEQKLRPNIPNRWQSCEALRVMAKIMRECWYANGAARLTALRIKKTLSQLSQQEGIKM
The test is described as follows: HTRF probe-displacement assay, HIS-TGFβR1 T204D. The test is classed as binding. As to conditions: read-out: TGFβR1 (μM) IC50. (In TR-FRET formats the signal depends on donor and acceptor labels being close together.)

For a further test, the target named is HIS-TGFβR2 WT (Homo sapiens, UniProt P37173). The test is described as follows: HTRF probe-displacement assay, HIS-TGFβR2 WT. The test is classed as binding.
Chain of HIS-TGFβR2 WT (P37173 23-567): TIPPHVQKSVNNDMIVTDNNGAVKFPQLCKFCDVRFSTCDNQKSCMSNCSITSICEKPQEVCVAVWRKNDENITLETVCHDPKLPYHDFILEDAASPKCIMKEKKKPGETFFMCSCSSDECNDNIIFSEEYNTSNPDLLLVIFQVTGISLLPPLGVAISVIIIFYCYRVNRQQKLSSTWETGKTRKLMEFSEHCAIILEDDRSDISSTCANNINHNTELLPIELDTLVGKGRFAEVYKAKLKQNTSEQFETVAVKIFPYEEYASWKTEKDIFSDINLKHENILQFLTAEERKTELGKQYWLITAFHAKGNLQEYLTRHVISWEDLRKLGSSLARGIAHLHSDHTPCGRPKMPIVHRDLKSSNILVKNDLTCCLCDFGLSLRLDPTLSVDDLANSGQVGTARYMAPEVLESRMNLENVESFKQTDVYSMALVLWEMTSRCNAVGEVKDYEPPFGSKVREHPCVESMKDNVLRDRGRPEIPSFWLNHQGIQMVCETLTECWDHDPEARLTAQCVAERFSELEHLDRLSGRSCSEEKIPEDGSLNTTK

As to `COc1ccc(-c2c(-c3ccnc(NC(C)=O)c3)[nH]c3cc(Cl)cnc23)nc1Cl` [Example 180, N-(4-(6-Chloro-3-(6-chloro-5-methoxypyridin-2-yl)-1H-pyrrolo[3,2-b]pyridin-2-yl)pyridin-2-yl)acetamide], the results for the IC50 on HIS-TGFβR1 T204D and at HIS-TGFβR2 WT were 0.0274 µM and more than 15 µM, respectively.
As for `CC(=O)Nc1cc(-c2[nH]c3cc(F)cnc3c2-c2ncc(C(F)F)s2)ccn1` [Example 182, N-(4-(3-(5-(Difluoromethyl)thiazol-2-yl)-6-fluoro-1H-pyrrolo[3,2-b]pyridin-2-yl)pyridin-2-yl)acetamide], the IC50 at HIS-TGFβR1 T204D is 0.182 µM; on HIS-TGFβR2 WT it was more than 15 µM.
The corresponding values for `CC(=O)Nc1cc(-c2[nH]c3cc(F)cnc3c2-c2ncc(C)s2)ccn1` [Example 183, N-(4-(6-Fluoro-3-(5-methylthiazol-2-yl)-1H-pyrrolo[3,2-b]pyridin-2-yl)pyridin-2-yl)acetamide] are 0.003 µM and 0.407 µM.
The matching figures for `COc1ccc(-c2c(-c3ccnc(NC(C)=O)c3)[nH]c3cc(C)cnc23)nc1` [Example 184, N-(4-(3-(5-Methoxypyridin-2-yl)-6-methyl-1H-pyrrolo[3,2-b]pyridin-2-yl)pyridin-2-yl)acetamide]: 6.52 µM and more than 15 µM.
The matching figures for `CC(=O)Nc1cc(-c2[nH]c3cc(C)cnc3c2-c2ncc(C(F)F)s2)ccn1` [Example 185, N-(4-(3-(5-(Difluoromethyl)thiazol-2-yl)-6-methyl-1H-pyrrolo[3,2-b]pyridin-2-yl)pyridin-2-yl)acetamide]: 7 µM and more than 15 µM.
With `CC(=O)Nc1cc(-c2[nH]c3cc(C)cnc3c2-c2csc(C)n2)ccn1` [Example 186, N-(4-(6-Methyl-3-(2-methylthiazol-4-yl)-1H-pyrrolo[3,2-b]pyridin-2-yl)pyridin-2-yl)acetamide], the IC50 on HIS-TGFβR1 T204D stood at 0.0029 µM; at HIS-TGFβR2 WT, 0.821 µM.
Consider `CC(=O)Nc1cc(-c2[nH]c3cccnc3c2-c2cnn(C)c2)ccn1` [Example 187, N-(4-(3-(1-Methyl-1H-pyrazol-4-yl)-1H-pyrrolo[3,2-b]pyridin-2-yl)pyridin-2-yl)acetamide], for which the IC50 at HIS-TGFβR1 T204D worked out at 0.0587 µM; at HIS-TGFβR2 WT it was 0.424 µM.
For the compound `CC(=O)Nc1cc(-c2[nH]c3cccnc3c2-c2ccc(C#N)s2)ccn1` [Example 188, N-(4-(3-(5-Cyanothiophen-2-yl)-1H-pyrrolo[3,2-b]pyridin-2-yl)pyridin-2-yl)acetamide], the IC50 at HIS-TGFβR1 T204D is 0.0104 µM; at HIS-TGFβR2 WT it was 0.24 µM.
On to `CC(=O)Nc1cc(-c2[nH]c3cccnc3c2-c2cn[nH]c2)ccn1` [Example 189, N-(4-(3-(1H-Pyrazol-4-yl)-1H-pyrrolo[3,2-b]pyridin-2-yl)pyridin-2-yl)acetamide], for which the results for the IC50 on HIS-TGFβR1 T204D and on HIS-TGFβR2 WT were 0.249 µM and 0.089 µM, respectively.
As to `CC(=O)Nc1cc(-c2[nH]c3cccnc3c2-c2ccnc(C#N)c2)ccn1` [Example 190, N-(4-(3-(2-Cyanopyridin-4-yl)-1H-pyrrolo[3,2-b]pyridin-2-yl)pyridin-2-yl)acetamide], the IC50 on HIS-TGFβR1 T204D stood at 0.0443 µM; at HIS-TGFβR2 WT, 7.56 µM.
Regarding `CC(=O)Nc1cc(-c2[nH]c3cccnc3c2-c2ccn[nH]2)ccn1` [Example 191, N-(4-(3-(1H-Pyrazol-5-yl)-1H-pyrrolo[3,2-b]pyridin-2-yl)pyridin-2-yl)acetamide], the IC50 on HIS-TGFβR1 T204D was 0.0939 µM; on HIS-TGFβR2 WT it was 2 µM.
The corresponding values for `COc1ccc(-c2c(-c3ccnc(NC(C)=O)c3)[nH]c3cccnc23)nc1Cl` [Example 192, N-(4-(3-(6-Chloro-5-methoxypyridin-2-yl)-1H-pyrrolo[3,2-b]pyridin-2-yl)pyridin-2-yl)acetamide] are 0.11 µM and more than 15 µM.
The matching figures for `CC(=O)Nc1cc(-c2[nH]c3cccnc3c2-c2ccc(F)c(C(F)F)n2)ccn1` [Example 193, N-(4-(3-(6-(Difluoromethyl)-5-fluoropyridin-2-yl)-1H-pyrrolo[3,2-b]pyridin-2-yl)pyridin-2-yl)acetamide]: 0.0006 µM and more than 15 µM.
The corresponding values for `COc1cnc(-c2c(-c3ccnc(NC(C)=O)c3)[nH]c3cccnc23)cn1` [Example 194, N-(4-(3-(5-Methoxypyrazin-2-yl)-1H-pyrrolo[3,2-b]pyridin-2-yl)pyridin-2-yl)acetamide] are 0.005 µM and 4.31 µM.
For `CC(=O)Nc1cc(-c2[nH]c3cccnc3c2-c2nccc(C)n2)ccn1` [Example 195, N-(4-(3-(4-Methylpyrimidin-2-yl)-1H-pyrrolo[3,2-b]pyridin-2-yl)pyridin-2-yl)acetamide], the IC50 at HIS-TGFβR1 T204D was 0.0048 µM; at HIS-TGFβR2 WT, more than 15 µM.
The corresponding values for `COc1cc(-c2c(-c3ccnc(NC(C)=O)c3)[nH]c3cccnc23)ccn1` [Example 196, N-(4-(3-(2-Methoxypyridin-4-yl)-1H-pyrrolo[3,2-b]pyridin-2-yl)pyridin-2-yl)acetamide] are 0.0951 µM and 1.21 µM.
The corresponding values for `CC(=O)Nc1cc(-c2[nH]c3cccnc3c2-c2nccc(Cl)n2)ccn1` [Example 197, N-(4-(3-(4-Chloropyrimidin-2-yl)-1H-pyrrolo[3,2-b]pyridin-2-yl)pyridin-2-yl)acetamide] are 3.54 µM and more than 15 µM.
In the case of `COc1ccc(-c2c(-c3ccnc(NC(C)=O)c3)[nH]c3cccnc23)nn1` [Example 198, N-(4-(3-(6-Methoxypyridazin-3-yl)-1H-pyrrolo[3,2-b]pyridin-2-yl)pyridin-2-yl)acetamide], the IC50 stood at 0.0011 µM at HIS-TGFβR1 T204D and 1.48 µM at HIS-TGFβR2 WT.
In the case of `CC(=O)Nc1cc(-c2[nH]c3cccnc3c2-c2nc(C)cs2)ccn1` [Example 199, N-(4-(3-(4-Methylthiazol-2-yl)-1H-pyrrolo[3,2-b]pyridin-2-yl)pyridin-2-yl)acetamide], the concentration for half-maximal inhibition (IC50) was 0.0006 µM at HIS-TGFβR1 T204D and 0.041 µM at HIS-TGFβR2 WT.
The matching figures for `CC(=O)Nc1cc(-c2[nH]c3cccnc3c2-c2nc(C(F)F)cs2)ccn1` [Example 200, N-(4-(3-(4-(Difluoromethyl)thiazol-2-yl)-1H-pyrrolo[3,2-b]pyridin-2-yl)pyridin-2-yl)acetamide]: 0.0007 µM and 0.548 µM.
For the compound `COc1nc(-c2c(-c3ccnc(NC(C)=O)c3)[nH]c3cccnc23)cs1` [Example 201, N-(4-(3-(2-Methoxythiazol-4-yl)-1H-pyrrolo[3,2-b]pyridin-2-yl)pyridin-2-yl)acetamide], the IC50 stood at 0.0275 µM at HIS-TGFβR1 T204D and 1.53 µM at HIS-TGFβR2 WT.
As for `CC(=O)Nc1cc(-c2[nH]c3cccnc3c2-c2ncc(C)s2)ccn1` [Example 202, N-(4-(3-(5-Methylthiazol-2-yl)-1H-pyrrolo[3,2-b]pyridin-2-yl)pyridin-2-yl)acetamide], the IC50 at HIS-TGFβR1 T204D is 0.0015 µM; at HIS-TGFβR2 WT, 0.225 µM.
The corresponding values for `CC(=O)Nc1cc(-c2[nH]c3cccnc3c2-c2nc(C#N)cs2)ccn1` [Example 203, N-(4-(3-(4-Cyanothiazol-2-yl)-1H-pyrrolo[3,2-b]pyridin-2-yl)pyridin-2-yl)acetamide] are 0.774 µM and more than 15 µM.
For the compound `CC(=O)Nc1cc(-c2[nH]c3cccnc3c2-c2nc(CO)cs2)ccn1` [Example 204, N-(4-(3-(4-(Hydroxymethyl)thiazol-2-yl)-1H-pyrrolo[3,2-b]pyridin-2-yl)pyridin-2-yl)acetamide], the 50% inhibitory concentration (IC50) amounted to 0.0055 µM on HIS-TGFβR1 T204D and 0.111 µM at HIS-TGFβR2 WT.
The matching figures for `CC(=O)Nc1cc(-c2[nH]c3cccnc3c2-c2nccs2)ccn1` [Example 205, N-(4-(3-(Thiazol-2-yl)-1H-pyrrolo[3,2-b]pyridin-2-yl)pyridin-2-yl)acetamide]: 0.0029 µM and 0.147 µM.
Regarding `CC(=O)Nc1cc(-c2[nH]c3cc(F)cnc3c2-c2ncc(Cl)s2)ccn1` [Example 206, N-(4-(3-(5-Chlorothiazol-2-yl)-6-fluoro-1H-pyrrolo[3,2-b]pyridin-2-yl)pyridin-2-yl)acetamide], the IC50 on HIS-TGFβR1 T204D is 0.0068 µM; on HIS-TGFβR2 WT it was 0.325 µM.
The matching figures for `COc1cnc2c(-c3nc(C)cs3)c(-c3ccnc(NC(C)=O)c3)[nH]c2c1` [Example 208, N-(4-(6-Methoxy-3-(4-methylthiazol-2-yl)-1H-pyrrolo[3,2-b]pyridin-2-yl)pyridin-2-yl)acetamide]: 0.0006 µM and 0.044 µM.
As for `COc1cnc2c(-c3ncc(C)s3)c(-c3ccnc(NC(C)=O)c3)[nH]c2c1` [Example 209, N-(4-(6-Methoxy-3-(5-methylthiazol-2-yl)-1H-pyrrolo[3,2-b]pyridin-2-yl)pyridin-2-yl)acetamide], the IC50 came out at 0.0009 µM at HIS-TGFβR1 T204D and 0.218 µM on HIS-TGFβR2 WT.
For `COc1cnc2c(-c3csc(C)n3)c(-c3ccnc(NC(C)=O)c3)[nH]c2c1` [Example 210, N-(4-(6-Methoxy-3-(2-methylthiazol-4-yl)-1H-pyrrolo[3,2-b]pyridin-2-yl)pyridin-2-yl)acetamide], the IC50 at HIS-TGFβR1 T204D turned out to be 0.0025 µM; at HIS-TGFβR2 WT, 0.815 µM.
The corresponding values for `CC(=O)Nc1cc(-c2[nH]c3cccnc3c2-c2csc(C)n2)ccn1` [Example 211, N-(4-(3-(2-Methylthiazol-4-yl)-1H-pyrrolo[3,2-b]pyridin-2-yl)pyridin-2-yl)acetamide] are 0.0049 µM and 1.04 µM.

The IC50 is the concentration at which inhibition is half-maximal.
